According to ChEMBL document CHEMBL5576038, “Design of a novel long-acting dual GLP-1/GIP receptor agonist” (Bioorg Med Chem, 2024):
Blank lines part the entries; values can stand above or below the molecule they belong to. Activity calls are given as the source filed them. The rule behind the calls is not given here. Where a SMILES comes first, the peptide text is derived from it. [ ]: non-standard residue; d: D form. The star is where a group is joined. X3 = O=C(O)CCCCCCCCCCCCCCCCC(=O)NCCOCCOCC(=O)N[C@@H](CCC(=O)N[C@@H](CCC(=O)N[C@@H](CCCCNC(=O)C*)C(=O)O)C(=O)O)C(=O)O; X2 = O=C(O)CCCCCCCCCCCCCCCCC(=O)NCCOCCOCC(=O)N[C@@H](CCC(=O)N[C@H](CCC(=O)N[C@H](CCCCNC(=O)C*)C(=O)O)C(=O)O)C(=O)O; Aib = CC(C)(N)C(=O)O

Legend:
[1] = molecular target: T1, Gastric inhibitory polypeptide receptor (Homo sapiens, UniProt P48546); assay: Agonist activity at human GIPR expressed in CHO cells assessed as increase in cAMP production incubated for 30 mins by Eu-cAMP tracer based microplate reader analysis; format: functional, cell-based
T1 sequence (P48546 whole entry): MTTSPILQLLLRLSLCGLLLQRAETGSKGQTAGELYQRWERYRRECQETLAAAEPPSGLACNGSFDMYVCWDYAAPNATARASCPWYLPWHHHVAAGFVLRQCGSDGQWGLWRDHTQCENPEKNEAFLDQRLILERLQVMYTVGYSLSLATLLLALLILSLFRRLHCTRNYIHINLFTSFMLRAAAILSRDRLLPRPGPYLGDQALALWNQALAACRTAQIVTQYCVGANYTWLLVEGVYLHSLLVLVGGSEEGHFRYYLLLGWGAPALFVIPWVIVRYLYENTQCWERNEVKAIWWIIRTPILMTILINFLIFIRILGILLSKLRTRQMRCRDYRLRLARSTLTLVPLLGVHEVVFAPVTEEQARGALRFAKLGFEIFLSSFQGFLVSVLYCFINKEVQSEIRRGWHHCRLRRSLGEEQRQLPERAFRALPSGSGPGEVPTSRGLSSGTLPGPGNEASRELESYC

[2] = molecular target: Glucagon-like peptide 1 receptor (Homo sapiens, UniProt P43220); assay: Agonist activity at human GLP-1R expressed in CHO cells assessed as increase in cAMP production incubated for 30 mins by Eu-cAMP tracer based microplate reader analysis; format: functional, cell-based
Sequence of Glucagon-like peptide 1 receptor (P43220 whole entry): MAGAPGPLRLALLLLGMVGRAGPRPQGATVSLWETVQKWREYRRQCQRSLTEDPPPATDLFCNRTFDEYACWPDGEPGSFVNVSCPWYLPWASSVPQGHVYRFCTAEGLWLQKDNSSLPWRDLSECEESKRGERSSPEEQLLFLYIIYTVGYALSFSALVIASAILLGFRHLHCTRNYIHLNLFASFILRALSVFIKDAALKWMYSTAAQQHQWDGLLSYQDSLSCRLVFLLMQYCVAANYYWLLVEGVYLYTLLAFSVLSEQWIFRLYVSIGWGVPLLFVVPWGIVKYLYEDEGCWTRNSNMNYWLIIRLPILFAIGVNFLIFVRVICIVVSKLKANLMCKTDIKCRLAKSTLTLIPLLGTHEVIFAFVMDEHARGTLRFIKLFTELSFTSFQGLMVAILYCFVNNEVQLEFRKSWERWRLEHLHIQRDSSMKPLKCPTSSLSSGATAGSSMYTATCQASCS

Mus musculus [3] = assay: Increase in body weight in male ICR mouse at 30 nmol/kg, sc measured after 2 days; format: functional, organism-based; settings: time 2.0 day
Mus musculus [4] = assay: Glucose-lowering effect in male ICR mouse assessed as reduction in plasma glucose AUC (0 to 72 hrs) at 30 nmol/kg, sc pretreated for 71 hrs followed by […] administration and measured after 60 mins by oral glucose tolerance test; format: functional, organism-based
Mus musculus [5] = assay: Anti-obesity activity in male C57/B16 mouse model of diet-induced obesity assessed as reduction in body weight at 30 nmol/kg, sc administered every 3 days for 46 days and measured every 3 days relative to control; format: functional, organism-based; design: scale not given: the % may be the effect or the level left; settings: time 46.0 day
Mus musculus [6] = assay: Hypoglycemic effect in male db/db mouse model assessed as reduction in body weight at 30 nmol/kg, sc administered every 3 days for 60 days and measured every 3 days; format: functional, organism-based; settings: time 60.0 day
Mus musculus [7] = assay: Hypoglycemic effect in male db/db mouse model assessed as reduction in HbA1c level at 30 nmol/kg, sc administered every 3 days for 60 days and measured on day 18, 31, 37, 52, 58 and 60 by auto-chemistry analyzer; format: functional, organism-based; settings: time 60.0 day
[8] = Tmax in Beagle dog at 10 nmol/kg, sc administered as single dose and measured upto 168 hrs by LC-MS/MS analysis; format: ADME, organism-based, Canis lupus familiaris; settings: in vivo, sc, 168 h
[9] = Cmax in Beagle dog at 10 nmol/kg, sc administered as single dose and measured upto 168 hrs by LC-MS/MS analysis; format: ADME, organism-based, Canis lupus familiaris; settings: in vivo, sc, 168 h
[10] = AUC (0 to 168 hrs) in Beagle dog at 10 nmol/kg, sc administered as single dose and measured upto 168 hrs by LC-MS/MS analysis; format: ADME, organism-based, Canis lupus familiaris; settings: in vivo, sc, 168 h
[11] = Elimination half life in Beagle dog at 10 nmol/kg, sc administered as single dose and measured upto 168 hrs by LC-MS/MS analysis; format: ADME, organism-based, Canis lupus familiaris; settings: in vivo, sc, 168 h
Mus musculus [12] = assay: Anti-obesity activity in male C57/B16 mouse model of diet-induced obesity assessed as reduction in body weight at 10 nmol/kg, sc administered every 3 days for 46 days and measured every 3 days relative to control; format: functional; design: scale not given: the % may be the effect or the level left; settings: time 46.0 day
Mus musculus [13] = assay: Hypoglycemic effect in male db/db mouse model assessed as blood glucose level at 30 nmol/kg, sc administered every 3 days for 31 days and measured 72 hrs post each dose; format: functional, organism-based; settings: time 31.0 day
Mus musculus [14] = assay: Reduction in body weight in male ICR mouse at 30 nmol/kg, sc measured for 4 days; format: functional, organism-based; settings: time 4.0 day

Molecule: CC(C)C[C@H](NC(=O)[C@H](CC(C)C)NC(=O)[C@H](Cc1c[nH]c2ccccc12)NC(=O)[C@H](CCC(N)=O)NC(=O)[C@@H](NC(=O)[C@H](Cc1ccccc1)NC(=O)[C@H](CC(C)C)NC(=O)[C@H](CCCCN)NC(=O)[C@H](C)NC(=O)[C@H](C)NC(=O)[C@H](CCC(N)=O)NC(=O)[C@H](CCCCN)NC(=O)[C@H](CCC(=O)O)NC(=O)[C@H](CC(C)C)NC(=O)[C@H](CSCC(=O)NCCCC[C@H](NC(=O)CC[C@H](NC(=O)CC[C@H](NC(=O)COCCOCCNC(=O)CCCCCCCCCCCCCCCCC(=O)O)C(=O)O)C(=O)O)C(=O)O)NC(=O)[C@H](Cc1ccc(O)cc1)NC(=O)[C@H](CO)NC(=O)[C@H](Cc1ccc(O)cc1)NC(=O)[C@H](CC(=O)O)NC(=O)[C@H](CO)NC(=O)[C@@H](NC(=O)[C@H](Cc1ccccc1)NC(=O)[C@@H](NC(=O)CNC(=O)[C@H](CCC(=O)O)NC(=O)C(C)(C)NC(=O)[C@@H](N)Cc1ccc(O)cc1)[C@@H](C)O)[C@@H](C)O)C(C)C)C(=O)N[C@@H](C)C(=O)NCC(=O)NCC(=O)N1CCC[C@H]1C(=O)N[C@@H](CO)C(=O)N[C@@H](CO)C(=O)NCC(=O)N[C@@H](C)C(=O)N1CCC[C@H]1C(=O)N1CCC[C@H]1C(=O)N1CCC[C@H]1C(=O)N[C@@H](CO)C(N)=O (H-Y[Aib]EGTFTSDYSYC(X3)LEKQAAKLFVQWLLAGGPSSGAPPPS-NH2)
EC50 [1]: 0.14 nM
EC50 [2]: 0.29 nM
Activity (Mus musculus [3]): Active

Molecule: CC(C)C[C@H](NC(=O)[C@H](CC(C)C)NC(=O)[C@H](Cc1c[nH]c2ccccc12)NC(=O)[C@H](CCC(N)=O)NC(=O)[C@@H](NC(=O)[C@H](Cc1ccccc1)NC(=O)[C@H](CC(C)C)NC(=O)[C@H](CCCCN)NC(=O)[C@H](C)NC(=O)[C@H](C)NC(=O)[C@H](CCC(N)=O)NC(=O)[C@H](CSCC(=O)NCCCC[C@@H](NC(=O)CC[C@@H](NC(=O)CC[C@H](NC(=O)COCCOCCNC(=O)CCCCCCCCCCCCCCCCC(=O)O)C(=O)O)C(=O)O)C(=O)O)NC(=O)[C@H](CCC(=O)O)NC(=O)[C@H](CC(C)C)NC(=O)[C@H](Cc1ccc(O)cc1)NC(=O)[C@H](Cc1ccc(O)cc1)NC(=O)[C@H](CO)NC(=O)[C@H](Cc1ccc(O)cc1)NC(=O)[C@H](CC(=O)O)NC(=O)[C@H](CO)NC(=O)[C@@H](NC(=O)[C@H](Cc1ccccc1)NC(=O)[C@@H](NC(=O)CNC(=O)[C@H](CCC(=O)O)NC(=O)C(C)(C)NC(=O)[C@@H](N)Cc1ccc(O)cc1)[C@@H](C)O)[C@@H](C)O)C(C)C)C(=O)N[C@@H](C)C(=O)NCC(=O)NCC(=O)N1CCC[C@H]1C(=O)N[C@@H](CO)C(=O)N[C@@H](CO)C(=O)NCC(=O)N[C@@H](C)C(=O)N1CCC[C@H]1C(=O)N1CCC[C@H]1C(=O)N1CCC[C@H]1C(=O)N[C@@H](CO)C(N)=O (H-Y[Aib]EGTFTSDYSYYLEC(X2)QAAKLFVQWLLAGGPSSGAPPPS-NH2)
EC50 ([1]; cho): 0.11 nM
EC50 ([2]; cho): 0.14 nM
Activity (Mus musculus [4]): Active
Activity (Mus musculus [3]): Active

Molecule: SEMAGLUTIDE
Activity (Mus musculus [5]): 10%
Activity (Mus musculus [6]): inactive
Activity (Mus musculus [7]): Active

Tmax [8]: 14 h
Cmax [9]: 0.344 µg/mL
AUC [10]: 35.123 µg·h/mL
beta t1/2 [11]: 93.8 h
Molecule: TIRZEPATIDE [listing 1 of 2 here]

Molecule: TIRZEPATIDE [listing 2 of 2 here]
Activity (Mus musculus [12]): 21%
Activity (Mus musculus [13]): Active
Activity (Mus musculus [6]): Active
Activity (Mus musculus [7]): Active
Activity (Mus musculus [14]): Active
